Reference: patent US20110224229A1, “Novel Crystalline Form” (AstraZeneca AB, priority 2010, published 2011)
“Also recorded” adds a separate entry of the source.

What was measured:
[1] = biological target: T1, Human Neutrophil Elastase (HNE) (Homo sapiens, UniProt P08246); assay: Human Neutrophil Elastase Quenched-FRET Assay; type: biochemical; conditions: compound dissolved in DMSO; n=7; read-out: IC50 value for inhibition of human neutrophil elastase activity
T1 construct: Human Neutrophil Elastase (HNE) purified from serum; purchased Calbiochem 324681; host or cells: natural source
T1 sequence (P08246 30-267): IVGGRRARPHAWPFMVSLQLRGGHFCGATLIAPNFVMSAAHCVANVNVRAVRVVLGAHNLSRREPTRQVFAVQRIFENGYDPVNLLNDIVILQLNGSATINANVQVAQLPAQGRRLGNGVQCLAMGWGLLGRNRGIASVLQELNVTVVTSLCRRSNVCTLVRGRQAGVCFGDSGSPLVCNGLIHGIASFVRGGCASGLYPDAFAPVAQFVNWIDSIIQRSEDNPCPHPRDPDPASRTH
Procedure: The assay uses Human Neutrophil Elastase (HNE) purified from serum (Calbiochem art. 324681; Ref. Baugh, R. J. et al., 1976, Biochemistry. 15, 836-841). HNE was stored in 50 mM sodium acetate (NaOAc), 500 mM sodium chloride (NaCl), pH 5.5 with added 50% glycerol at −20° C. The protease substrate used was Elastase Substrate V Fluorogenic, MeOSuc-AAPV-AMC (Calbiochem art. 324740; Ref. Castillo, M. J. et al., 1979, Anal. Biochem. 99, 53-64). The substrate was stored in dimethyl sulfoxide (DMSO) at −20° C. The assay additions were as follows: Test compounds and controls were added to black 96-well flat-bottom plates (Greiner 655076), 1.0 μL in 100% DMSO, followed by 30 μL HNE in assay buffer with 0.01% Triton (trade mark) X-100 detergent. The assay buffer constitution was: 100 mM Tris(hydroxymethyl)aminomethane (TRIS) (pH 7.5) and 500 mM NaCl. The enzyme and the compounds were incubated at room temperature for 15 minutes. Then 30 μl substrate in assay buffer was added. The assay was incubated for 90 minutes at room temperature. The concentrations of HNE enzyme and substrate during the incubation were 0.17 nM and 100 μM, respectively. […] Fluorescence was measured on a Wallac EnVision instrument at settings: Excitation 380 nm, Emission 460 nm. IC50 values were determined using Xlfit curve fitting using model 203.

[2] = Slurrying in water or solvents, hydrate/solvate formation; type: physicochemical
[3] = Humidity interaction, Gravimetrical Vapour Sorption (GVS); type: physicochemical; conditions: for hygroscopicity, defined as the water uptake by a dried sample when the relative humidity is increased from 0% to 80%: 0% to 80% RH at 25° C.; for hygroscopicity (in words) / water uptake following exposure to 80% relative humidity (RH): GVS, 80% RH
Procedure: The gravimetric responses of test samples to changes in humidity were investigated using a TGA 5000 (TA Instruments) Gravimetrical Vapour Sorption (GVS). The temperature was held at 25° C. throughout the experiments. The relative humidity (RH) was raised in steps (of 5 or 10%) up to 90% RH and lowered back to 0% RH in two cycles. Each level of RH was held until the equilibrium condition (sample weight change<0.0005 wt % per 10 minutes) was reached. 5-10 mg of the test sample was placed in the cup and evaluated. The hygroscopicity was calculated as the relative change in weight of the sample between 0% RH at the start of the second cycle and 80% RH during the increase of humidity in the second cycle.
The hygroscopicity of a sample is dependent on factors in addition to the inherent properties of the pure solid form itself, for example the purity and the crystallinity of the sample will have some impact on the result.

Structure (SMILES) | IC50 [1] [nM] | hydrate formation when slurried in water ([2]; slurried in water for 4 weeks) | hygroscopicity, defined as the water uptake by a dried sample when the relative humidity is increased from 0% to 80% [3] | hygroscopicity (in words) [3] | water uptake following exposure to 80% relative humidity (RH) [3] | solvate/hydrate formation when slurried in water, ethanol or acetonitrile ([2]; slurried in water, ethanol or acetonitrile, XRPD)
CCNC(=O)c1nc(-c2ccnn2-c2ccc(C#N)cc2)c(C)n(-c2cccc(C(F)(F)F)c2)c1=O [Compound (I), 6-[2-(4-Cyano-phenyl)-2H-pyrazol-3-yl]-5-methyl-3-oxo-4-(3-trifluoromethyl-phenyl)-3,4-dihydro-pyrazine-2-carboxylic acid ethylamide] | 0.27 | – | – | – | – | –
CCNC(=O)c1nc(-c2ccnn2-c2ccc(C#N)cc2)c(C)n(-c2cccc(C(F)(F)F)c2)c1=O [Compound (I) Form B, 6-[2-(4-Cyano-phenyl)-2H-pyrazol-3-yl]-5-methyl-3-oxo-4-(3-trifluoromethyl-phenyl)-3,4-dihydro-pyrazine-2-carboxylic acid ethylamide Form B] | – | did not form hydrates | 0.08 % (w/w) | substantially non-hygroscopic | about 0.08 % by weight | –
CCNC(=O)c1nc(-c2ccnn2-c2ccc(C#N)cc2)c(C)n(-c2cccc(C(F)(F)F)c2)c1=O [Compound (I) Form A, 6-[2-(4-Cyano-phenyl)-2H-pyrazol-3-yl]-5-methyl-3-oxo-4-(3-trifluoromethyl-phenyl)-3,4-dihydro-pyrazine-2-carboxylic acid ethylamide Form A] | – | – | 1.6 % (w/w) | slightly hygroscopic; also recorded: non-hygroscopic | about 1.6 % by weight | forms variable, non-stoichiometric solvates with acetonitrile or ethanol and hydrates with water
